Data published in patent US20140357512A1, “HISTONE DEACETYLASE (HDAC) BIOMARKERS IN MULTIPLE MYELOMA” (priority 2013, published 2014).

Test system: human myeloma cell line MM.1S
Experiment: Biological pathway analysis of SILAC biomarker peptides against pathway database (broadinstitute gsea)
Method: Once biomarker peptides are identified for a specific drug by the SILAC method, the biomarker peptides may be compared to peptides/proteins in a biological pathway database in order to identify major biological pathways or functions implicated by the drug's action. A preferred pathway analysis website is at www dot broadinstitute dot org/gsea/index dot jsp.
This example describes the biological pathway analysis that was performed on each of Compound A, Compound B, and Tubastatin A.
Once biomarker peptides were identified for a specific drug (either Compound A, Compound B, or Tubastatin A) by the SILAC method in Example 1, the biomarker peptides were compared to peptides/proteins in the biological pathway database at www dot broadinstitute dot org/gsea/index dot jsp in order to identify major biological pathways or functions implicated by the drug's action.

CN1CCc2c(c3ccccc3n2Cc2ccc(C(=O)NO)cc2)C1 [Tubastatin A, reference compound]
Observed: number of genes in pathway REACTOME_PACKAGING_OF_TELOMERE_ENDS (Pathway_size 48): 26
Ratio observed/pathway size, REACTOME_PACKAGING_OF_TELOMERE_ENDS (Pathway_size 48): 0.5417
Observed: number of genes in pathway REACTOME_RNA_POL_I_PROMOTER_OPENING (Pathway_size 61): 40
Ratio observed/pathway size, REACTOME_RNA_POL_I_PROMOTER_OPENING (Pathway_size 61): 0.6557
Observed: number of genes in pathway REACTOME_DEPOSITION_OF_NEW_CENPA_CONTAINING_NUCLEOSOMES_AT_THE_CENTROMERE (Pathway_size 64): 27
Ratio observed/pathway size, REACTOME_DEPOSITION_OF_NEW_CENPA_CONTAINING_NUCLEOSOMES_AT_THE_CENTROMERE (Pathway_size 64): 0.4219
Observed: number of genes in pathway GCM_TPT1 (Pathway_size 70): 28
Ratio observed/pathway size, GCM_TPT1 (Pathway_size 70): 0.4
Observed: number of genes in pathway REACTOME_MEIOTIC_SYNAPSIS (Pathway_size 71): 27
Ratio observed/pathway size, REACTOME_MEIOTIC_SYNAPSIS (Pathway_size 71): 0.3803
Observed: number of genes in pathway REACTOME_TELOMERE_MAINTENANCE (Pathway_size 75): 26
Ratio observed/pathway size, REACTOME_TELOMERE_MAINTENANCE (Pathway_size 75): 0.3467
Observed: number of genes in pathway STRUCTURAL_CONSTITUENT_OF_RIBOSOME (Pathway_size 80): 28
Ratio observed/pathway size, STRUCTURAL_CONSTITUENT_OF_RIBOSOME (Pathway_size 80): 0.35
Observed: number of genes in pathway MIPS_RIBOSOME_CYTOPLASMIC (Pathway_size 81): 32
Observed: number of genes in pathway REACTOME_AMYLOIDS (Pathway_size 81): 40
Ratio observed/pathway size, MIPS_RIBOSOME_CYTOPLASMIC (Pathway_size 81): 0.3951
Ratio observed/pathway size, REACTOME_AMYLOIDS (Pathway_size 81): 0.4938
Observed: number of genes in pathway REACTOME_MEIOTIC_RECOMBINATION (Pathway_size 84): 41
Ratio observed/pathway size, REACTOME_MEIOTIC_RECOMBINATION (Pathway_size 84): 0.4881
Observed: number of genes in pathway REACTOME_RNA_POL_I_TRANSCRIPTION (Pathway_size 86): 40
Ratio observed/pathway size, REACTOME_RNA_POL_I_TRANSCRIPTION (Pathway_size 86): 0.4651
Observed: number of genes in pathway KEGG_RIBOSOME (Pathway_size 88): 33
Ratio observed/pathway size, KEGG_RIBOSOME (Pathway_size 88): 0.375
Observed: number of genes in pathway MORF_TPT1 (Pathway_size 102): 32
Ratio observed/pathway size, MORF_TPT1 (Pathway_size 102): 0.3137
Observed: number of genes in pathway MIPS_NOP56P_ASSOCIATED_PRE_RRNA_COMPLEX (Pathway_size 104): 33
Ratio observed/pathway size, MIPS_NOP56P_ASSOCIATED_PRE_RRNA_COMPLEX (Pathway_size 104): 0.3173
Observed: number of genes in pathway REACTOME_MEIOSIS (Pathway_size 112): 42
Ratio observed/pathway size, REACTOME_MEIOSIS (Pathway_size 112): 0.375
Observed: number of genes in pathway GCM_NPM1 (Pathway_size 116): 36
Ratio observed/pathway size, GCM_NPM1 (Pathway_size 116): 0.3103
Observed: number of genes in pathway GNF2_DAP3 (Pathway_size 119): 30
Observed: number of genes in pathway REACTOME_RNA_POL_I_RNA_POL_III_AND_MITOCHONDRIAL_TRANSCRIPTION (Pathway_size 119): 40
Ratio observed/pathway size, GNF2_DAP3 (Pathway_size 119): 0.2521
Ratio observed/pathway size, REACTOME_RNA_POL_I_RNA_POL_III_AND_MITOCHONDRIAL_TRANSCRIPTION (Pathway_size 119): 0.3361
Observed: number of genes in pathway GNF2_EIF3S6 (Pathway_size 121): 33
Ratio observed/pathway size, GNF2_EIF3S6 (Pathway_size 121): 0.2727
Observed: number of genes in pathway GCM_ACTG1 (Pathway_size 124): 34
Ratio observed/pathway size, GCM_ACTG1 (Pathway_size 124): 0.2742
Observed: number of genes in pathway MORF_ACTG1 (Pathway_size 138): 39
Ratio observed/pathway size, MORF_ACTG1 (Pathway_size 138): 0.2826
Observed: number of genes in pathway KEGG_SYSTEMIC_LUPUS_ERYTHEMATOSUS (Pathway_size 139): 47
Ratio observed/pathway size, KEGG_SYSTEMIC_LUPUS_ERYTHEMATOSUS (Pathway_size 139): 0.3381
Observed: number of genes in pathway REACTOME_PEPTIDE_CHAIN_ELONGATION (Pathway_size 145): 32
Ratio observed/pathway size, REACTOME_PEPTIDE_CHAIN_ELONGATION (Pathway_size 145): 0.2207
Observed: number of genes in pathway MORF_NME2 (Pathway_size 154): 39
Ratio observed/pathway size, MORF_NME2 (Pathway_size 154): 0.2532
Observed: number of genes in pathway REACTOME_INFLUENZA_VIRAL_RNA_TRANSCRIPTION_AND_REPLICATION (Pathway_size 161): 33
Ratio observed/pathway size, REACTOME_INFLUENZA_VIRAL_RNA_TRANSCRIPTION_AND_REPLICATION (Pathway_size 161): 0.205
Observed: number of genes in pathway MORF_NPM1 (Pathway_size 162): 43
Ratio observed/pathway size, MORF_NPM1 (Pathway_size 162): 0.2654
Observed: number of genes in pathway REACTOME_3_UTR_MEDIATED_TRANSLATIONAL_REGULATION (Pathway_size 166): 32
Ratio observed/pathway size, REACTOME_3_UTR_MEDIATED_TRANSLATIONAL_REGULATION (Pathway_size 166): 0.1928
Observed: number of genes in pathway REACTOME_NONSENSE_MEDIATED_DECAY_ENHANCED_BY_THE_EXON_JUNCTION_COMPLEX (Pathway_size 167): 32
Ratio observed/pathway size, REACTOME_NONSENSE_MEDIATED_DECAY_ENHANCED_BY_THE_EXON_JUNCTION_COMPLEX (Pathway_size 167): 0.1916
Observed: number of genes in pathway REACTOME_SRP_DEPENDENT_COTRANSLATIONAL_PROTEIN_TARGETING_TO_MEMBRANE (Pathway_size 170): 39
Ratio observed/pathway size, REACTOME_SRP_DEPENDENT_COTRANSLATIONAL_PROTEIN_TARGETING_TO_MEMBRANE (Pathway_size 170): 0.2294
Observed: number of genes in pathway REACTOME_INFLUENZA_LIFE_CYCLE (Pathway_size 195): 37
Ratio observed/pathway size, REACTOME_INFLUENZA_LIFE_CYCLE (Pathway_size 195): 0.1897
Observed: number of genes in pathway MORF_ANP32B (Pathway_size 197): 38
Ratio observed/pathway size, MORF_ANP32B (Pathway_size 197): 0.1929
Observed: number of genes in pathway REACTOME_TRANSCRIPTION (Pathway_size 207): 45
Ratio observed/pathway size, REACTOME_TRANSCRIPTION (Pathway_size 207): 0.2174
Observed: number of genes in pathway REACTOME_TRANSLATION (Pathway_size 211): 39
Ratio observed/pathway size, REACTOME_TRANSLATION (Pathway_size 211): 0.1848
Observed: number of genes in pathway MORF_UBE2I (Pathway_size 238): 43
Ratio observed/pathway size, MORF_UBE2I (Pathway_size 238): 0.1807
Observed: number of genes in pathway MODULE_32 (Pathway_size 241): 36
Ratio observed/pathway size, MODULE_32 (Pathway_size 241): 0.1494
Observed: number of genes in pathway MORF_HDAC1 (Pathway_size 254): 37
Ratio observed/pathway size, MORF_HDAC1 (Pathway_size 254): 0.1457
Observed: number of genes in pathway MORF_DEK (Pathway_size 262): 39
Ratio observed/pathway size, MORF_DEK (Pathway_size 262): 0.1489
Observed: number of genes in pathway MORF_RAN (Pathway_size 268): 46
Ratio observed/pathway size, MORF_RAN (Pathway_size 268): 0.1716
Observed: number of genes in pathway MODULE_151 (Pathway_size 318): 49
Ratio observed/pathway size, MODULE_151 (Pathway_size 318): 0.1541
Observed: number of genes in pathway MODULE_83 (Pathway_size 320): 50
Ratio observed/pathway size, MODULE_83 (Pathway_size 320): 0.1562
Observed: number of genes in pathway MODULE_114 (Pathway_size 338): 49
Ratio observed/pathway size, MODULE_114 (Pathway_size 338): 0.145
Observed: number of genes in pathway HSIAO_HOUSEKEEPING_GENES (Pathway_size 389): 68
Ratio observed/pathway size, HSIAO_HOUSEKEEPING_GENES (Pathway_size 389): 0.1748
Observed: number of genes in pathway MOOTHA_HUMAN_MITODB_6_2002 (Pathway_size 429): 46
Ratio observed/pathway size, MOOTHA_HUMAN_MITODB_6_2002 (Pathway_size 429): 0.1072
Observed: number of genes in pathway REACTOME_METABOLISM_OF_PROTEINS (Pathway_size 496): 56
Ratio observed/pathway size, REACTOME_METABOLISM_OF_PROTEINS (Pathway_size 496): 0.1129
Observed: number of genes in pathway MARTENS_TRETINOIN_RESPONSE_DN (Pathway_size 841): 63
Ratio observed/pathway size, MARTENS_TRETINOIN_RESPONSE_DN (Pathway_size 841): 0.07491
Observed: number of genes in pathway GRADE_COLON_CANCER_UP (Pathway_size 870): 62
Ratio observed/pathway size, GRADE_COLON_CANCER_UP (Pathway_size 870): 0.07126
Observed: number of genes in pathway DANG_BOUND_BY_MYC (Pathway_size 1102): 68
Ratio observed/pathway size, DANG_BOUND_BY_MYC (Pathway_size 1102): 0.06171
Observed: number of genes in pathway CYTOPLASMIC_PART (Pathway_size 1383): 67
Ratio observed/pathway size, CYTOPLASMIC_PART (Pathway_size 1383): 0.04845
Observed: number of genes in pathway PUJANA_BRCA1_PCC_NETWORK (Pathway_size 1651): 84
Ratio observed/pathway size, PUJANA_BRCA1_PCC_NETWORK (Pathway_size 1651): 0.05088
Observed: number of genes in pathway CYTOPLASM (Pathway_size 2130): 83
Ratio observed/pathway size, CYTOPLASM (Pathway_size 2130): 0.03897
